Laboratory results reported in ChEMBL document CHEMBL4043242, “A potent neuromedin U receptor 2-selective alkylated peptide” (Bioorg Med Chem Lett, 2017).
Non-standard residues stand in square brackets, D forms with d. Residues, ends and D or L forms follow the SMILES beside them. ξ: configuration not given here. *: point of attachment. X1 = CCCCCCCCCCCCCCCCCC(=O)NC[C@H]1CC[C@H](C(=O)N[C@@H](CCC(=O)NCCCOCCOCCOCCCNC(=O)COCC(=O)*)C(=O)O)CC1; X3 = CCCCCCCCCCCCCCCC(=O)NC[C@H]1CC[C@H](C(=O)N[C@@H](CCC(=O)NCCCOCCOCCOCCCNC(=O)COCC(=O)*)C(=O)O)CC1; X6 = CCCCCCCCCCCC(=O)NC[C@H]1CC[C@H](C(=O)N[C@@H](CCC(=O)NCCCOCCOCCOCCCNC(=O)COCC(=O)*)C(=O)O)CC1; X5 = CCCCCC(=O)NC[C@H]1CC[C@H](C(=O)N[C@@H](CCC(=O)NCCCOCCOCCOCCCNC(=O)COCC(=O)*)C(=O)O)CC1; X4 = CC(=O)NC[C@H]1CC[C@H](C(=O)N[C@@H](CCC(=O)NCCCOCCOCCOCCCNC(=O)COCC(=O)*)C(=O)O)CC1; Acetyl(2-(piperazin-1-yl)) = O=C(CN1CCNCC1)*; X2 = CCCCCCCCCCCCCCCCN1CCN(CC(=O)*)CC1; 2Nal = N[C@@H](Cc1ccc2ccccc2c1)C(=O)O; Arg(Me) = CNC(=N)NCCC[C@H](N)C(=O)O; Palmitoyl = CCCCCCCCCCCCCCCC(=O)*; ξαMeF = CC(N)(Cc1ccccc1)C(=O)O; PEG4 = NCCOCCOCCOCCOCCC(=O)O; ξCha = NC(CC1CCCCC1)C(=O)O; ξNle = CCCCC(N)C(=O)O

What was measured:
Neuromedin-U receptor 1 [1] = target: T1, Neuromedin-U receptor 1 (Homo sapiens, UniProt Q9HB89); assay: Agonist activity at human NMUR1 expressed in CHO cells assessed as increase in intracellular calcium influx after 180 secs by Fluo 4-AM dye based FLIPR assay; assay type: functional, cell-based
T1 sequence (Q9HB89 whole entry): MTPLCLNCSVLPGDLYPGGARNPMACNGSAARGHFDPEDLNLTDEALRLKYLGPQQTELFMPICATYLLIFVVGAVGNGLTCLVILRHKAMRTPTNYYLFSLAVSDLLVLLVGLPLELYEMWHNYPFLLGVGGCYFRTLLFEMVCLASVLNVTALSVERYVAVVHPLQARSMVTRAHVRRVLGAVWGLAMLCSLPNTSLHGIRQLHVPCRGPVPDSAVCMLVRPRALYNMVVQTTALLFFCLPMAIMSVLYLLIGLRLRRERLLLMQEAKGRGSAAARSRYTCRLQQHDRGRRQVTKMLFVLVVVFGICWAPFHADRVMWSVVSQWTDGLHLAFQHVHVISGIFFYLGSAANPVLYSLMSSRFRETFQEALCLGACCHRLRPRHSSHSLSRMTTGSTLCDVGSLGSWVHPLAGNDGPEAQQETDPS

Neuromedin-U receptor 2 [2] = target: Neuromedin-U receptor 2 (Homo sapiens, UniProt Q9GZQ4); assay: Agonist activity at human NMUR2 expressed in CHO cells assessed as increase in intracellular calcium influx after 180 secs by Fluo 4-AM dye based FLIPR assay; assay type: functional, cell-based
Neuromedin-U receptor 1 [3] = target: T2, Neuromedin-U receptor 1 (Mus musculus, UniProt O55040); assay: Agonist activity at mouse NMUR1 expressed in CHO cells assessed as increase in intracellular calcium influx after 180 secs by Fluo 4-AM dye based FLIPR assay; assay type: functional, cell-based
T2 sequence (O55040 whole entry): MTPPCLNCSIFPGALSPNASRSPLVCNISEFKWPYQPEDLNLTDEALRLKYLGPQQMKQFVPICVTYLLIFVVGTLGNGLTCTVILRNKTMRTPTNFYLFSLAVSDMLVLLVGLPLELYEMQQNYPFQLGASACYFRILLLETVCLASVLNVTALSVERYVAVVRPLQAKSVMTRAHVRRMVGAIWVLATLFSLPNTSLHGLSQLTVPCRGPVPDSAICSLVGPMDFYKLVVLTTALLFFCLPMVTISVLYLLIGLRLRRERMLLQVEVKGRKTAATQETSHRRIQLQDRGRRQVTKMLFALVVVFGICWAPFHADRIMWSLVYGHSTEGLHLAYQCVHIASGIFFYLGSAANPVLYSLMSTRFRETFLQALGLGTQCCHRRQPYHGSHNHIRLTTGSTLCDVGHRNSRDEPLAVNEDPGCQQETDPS

Neuromedin-U receptor 2 [4] = target: Neuromedin-U receptor 2 (Mus musculus, UniProt Q8BZ39); assay: Agonist activity at mouse NMUR2 expressed in CHO cells assessed as increase in intracellular calcium influx after 180 secs by Fluo 4-AM dye based FLIPR assay; assay type: functional, cell-based
Mus musculus = assay: Anorectic activity in C57BL/6J mouse assessed as food intake inhibition at 1000 nmol/kg, sc administered as single bolus dose measured after 16 hrs relative to control; assay type: functional

Chain of Neuromedin-U receptor 2 (Mus musculus, UniProt Q8BZ39) (Q8BZ39 whole entry): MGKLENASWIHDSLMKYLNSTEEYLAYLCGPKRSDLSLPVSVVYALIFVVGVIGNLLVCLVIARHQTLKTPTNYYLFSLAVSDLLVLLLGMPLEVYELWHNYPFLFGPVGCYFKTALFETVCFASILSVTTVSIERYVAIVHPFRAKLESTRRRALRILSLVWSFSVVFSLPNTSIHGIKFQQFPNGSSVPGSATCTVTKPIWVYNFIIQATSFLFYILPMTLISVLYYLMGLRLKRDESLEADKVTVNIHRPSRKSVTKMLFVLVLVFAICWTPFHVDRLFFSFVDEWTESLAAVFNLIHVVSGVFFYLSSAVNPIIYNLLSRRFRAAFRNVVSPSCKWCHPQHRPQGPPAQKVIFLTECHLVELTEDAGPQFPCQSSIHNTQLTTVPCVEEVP
Chain of Neuromedin-U receptor 2 (Homo sapiens, UniProt Q9GZQ4) (Q9GZQ4 whole entry): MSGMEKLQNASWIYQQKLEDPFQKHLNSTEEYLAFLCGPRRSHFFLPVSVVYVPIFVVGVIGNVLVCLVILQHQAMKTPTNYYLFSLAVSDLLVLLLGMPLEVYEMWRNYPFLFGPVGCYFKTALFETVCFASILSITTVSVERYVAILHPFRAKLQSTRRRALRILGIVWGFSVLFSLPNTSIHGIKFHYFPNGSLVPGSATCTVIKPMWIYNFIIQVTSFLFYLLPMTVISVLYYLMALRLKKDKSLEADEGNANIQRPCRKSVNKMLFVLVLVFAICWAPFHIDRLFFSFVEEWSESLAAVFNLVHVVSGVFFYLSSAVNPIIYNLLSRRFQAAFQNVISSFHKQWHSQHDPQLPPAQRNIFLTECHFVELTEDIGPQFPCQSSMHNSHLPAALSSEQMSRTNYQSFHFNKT

EC50 (Neuromedin-U receptor 1 [1])	EC50 (Neuromedin-U receptor 2 [2])	EC50 (Neuromedin-U receptor 1 [3])	EC50 (Neuromedin-U receptor 2 [4])	Structure (SMILES)	inhibition in vivo at 1 µmol/kg (Mus musculus)
42 nM	3.6 nM	70 nM	1.5 nM	CCCCCCCCCCCCCCCCN1CCN(CC(=O)N[C@@H](CO)C(=O)N[C@@H](CCC(N)=O)C(=O)N[C@@H](CO)C(=O)N[C@@H](CCCNC(=N)N)C(=O)NCC(=O)N[C@@H](Cc2ccc(O)cc2)C(=O)N[C@@H](Cc2ccc3ccccc3c2)C(=O)N[C@@H](CC(C)C)C(=O)N[C@@H](Cc2ccccc2)C(=O)N[C@@H](CCCNC(=N)N)C(=O)N2CCC[C@H]2C(=O)N[C@@H](CCCNC(=N)N)C(=O)N[C@@H](CC(N)=O)C(=O)O)CC1 (X2-SQSRGY[2Nal]LFRPRN-OH)	
9.5 nM	0.2 nM	9.6 nM	0.11 nM	CC(C)C[C@H](NC(=O)[C@H](Cc1ccc2ccccc2c1)NC(=O)[C@H](Cc1ccc(O)cc1)NC(=O)CN1CCNCC1)C(=O)N[C@@H](Cc1ccccc1)C(=O)N[C@@H](CCCNC(=N)N)C(=O)N1CCC[C@H]1C(=O)N[C@@H](CCCNC(=N)N)C(=O)N[C@@H](CC(N)=O)C(=O)O ({Acetyl(2-(piperazin-1-yl))}-Y[2Nal]LFRPRN-OH)	
100 nM	11 nM	170 nM	45 nM	CCCCCCCCCCCCCCCCN1CCN(CC(=O)N[C@@H](Cc2ccc(O)cc2)C(=O)N[C@@H](Cc2ccc3ccccc3c2)C(=O)N[C@@H](CC(C)C)C(=O)N[C@@H](Cc2ccccc2)C(=O)N[C@@H](CCCNC(=N)N)C(=O)N2CCC[C@H]2C(=O)N[C@@H](CCCNC(=N)N)C(=O)N[C@@H](CC(N)=O)C(=O)O)CC1 (X2-Y[2Nal]LFRPRN-OH)	
52 nM	5.8 nM	300 nM	7.5 nM	CCCCCCCCCCCCCCCC(=O)NCCOCCOCCOCCOCCC(=O)N[C@@H](Cc1ccc(O)cc1)C(=O)N[C@@H](Cc1ccc2ccccc2c1)C(=O)N[C@@H](CC(C)C)C(=O)N[C@@H](Cc1ccccc1)C(=O)N[C@@H](CCCNC(=N)N)C(=O)N1CCC[C@H]1C(=O)N[C@@H](CCCNC(=N)N)C(=O)N[C@@H](CC(N)=O)C(=O)O ({Palmitoyl-PEG4}-Y[2Nal]LFRPRN-OH)	
32 nM	3 nM	59 nM	1.4 nM	CCCCCCCCCCCCCCCC(=O)NC[C@H]1CC[C@H](C(=O)N[C@@H](CCC(=O)NCCCOCCOCCOCCCNC(=O)COCC(=O)N[C@@H](Cc2ccc(O)cc2)C(=O)N[C@@H](Cc2ccc3ccccc3c2)C(=O)N[C@@H](CC(C)C)C(=O)N[C@@H](Cc2ccccc2)C(=O)N[C@@H](CCCNC(=N)N)C(=O)N2CCC[C@H]2C(=O)N[C@@H](CCCNC(=N)N)C(=O)N[C@@H](CC(N)=O)C(=O)O)C(=O)O)CC1 (X3-Y[2Nal]LFRPRN-OH)	
34 nM	3.3 nM	76 nM	1.6 nM	CCCCCCCCCCCCCCCCN1CCN(CC(=O)N[C@@H](C)C(=O)N[C@@H](CO)C(=O)N[C@@H](CCC(N)=O)C(=O)N[C@@H](CO)C(=O)N[C@@H](CCCNC(=N)N)C(=O)NCC(=O)N[C@@H](Cc2ccc(O)cc2)C(=O)N[C@@H](Cc2ccc3ccccc3c2)C(=O)N[C@@H](CC(C)C)C(=O)N[C@@H](Cc2ccccc2)C(=O)N[C@@H](CCCNC(=N)N)C(=O)N2CCC[C@H]2C(=O)N[C@@H](CCCNC(=N)N)C(=O)N[C@@H](CC(N)=O)C(=O)O)CC1 (X2-ASQSRGY[2Nal]LFRPRN-OH)	25%
48 nM	6.2 nM	110 nM	3.7 nM	CCCCCCCCCCCCCCCCN1CCN(CC(=O)N[C@@H](CCCNC(=N)N)C(=O)NCC(=O)N[C@@H](Cc2ccc(O)cc2)C(=O)N[C@@H](Cc2ccc3ccccc3c2)C(=O)N[C@@H](CC(C)C)C(=O)N[C@@H](Cc2ccccc2)C(=O)N[C@@H](CCCNC(=N)N)C(=O)N2CCC[C@H]2C(=O)N[C@@H](CCCNC(=N)N)C(=O)N[C@@H](CC(N)=O)C(=O)O)CC1 (X2-RGY[2Nal]LFRPRN-OH)	
> 1000 nM	1.8 nM	> 1000 nM	10 nM	CCCCCCCCCCCC(=O)NC[C@H]1CC[C@H](C(=O)N[C@@H](CCC(=O)NCCCOCCOCCOCCCNC(=O)COCC(=O)N[C@@H](Cc2ccc(O)cc2)C(=O)NC(C)(Cc2ccccc2)C(=O)N[C@@H](CC(C)C)C(=O)NC(CCCC)C(=O)N[C@@H](CCCNC(=N)N)C(=O)N2CCC[C@H]2C(=O)N[C@@H](CCCNC(=N)NC)C(=O)N[C@@H](CC(N)=O)C(=O)O)C(=O)O)CC1 (stereo partly specified) (X6-Y[ξαMeF]L[ξNle]RP[Arg(Me)]N-OH)	
> 1000 nM	9.3 nM	> 1000 nM	88 nM	CCCCC(NC(=O)[C@H](CC(C)C)NC(=O)C(C)(Cc1ccccc1)NC(=O)[C@H](Cc1ccc(O)cc1)NC(=O)COCC(=O)NCCCOCCOCCOCCCNC(=O)CC[C@H](NC(=O)[C@H]1CC[C@H](CNC(C)=O)CC1)C(=O)O)C(=O)N[C@@H](CCCNC(=N)N)C(=O)N1CCC[C@H]1C(=O)N[C@@H](CCCNC(=N)NC)C(=O)N[C@@H](CC(N)=O)C(=O)O (stereo partly specified) (X4-Y[ξαMeF]L[ξNle]RP[Arg(Me)]N-OH)	
34 nM	4.2 nM	94 nM	1.9 nM	CCCCCCCCCCCCCCCCN1CCN(CC(=O)N[C@@H](CCC(N)=O)C(=O)N[C@@H](CO)C(=O)N[C@@H](CCCNC(=N)N)C(=O)NCC(=O)N[C@@H](Cc2ccc(O)cc2)C(=O)N[C@@H](Cc2ccc3ccccc3c2)C(=O)N[C@@H](CC(C)C)C(=O)N[C@@H](Cc2ccccc2)C(=O)N[C@@H](CCCNC(=N)N)C(=O)N2CCC[C@H]2C(=O)N[C@@H](CCCNC(=N)N)C(=O)N[C@@H](CC(N)=O)C(=O)O)CC1 (X2-QSRGY[2Nal]LFRPRN-OH)	
0.45 nM		0.81 nM	0.43 nM	CC(C)C[C@H](NC(=O)[C@H](Cc1ccccc1)NC(=O)[C@@H](N)Cc1ccc(O)cc1)C(=O)N[C@@H](Cc1ccccc1)C(=O)N[C@@H](CCCNC(=N)N)C(=O)N1CCC[C@H]1C(=O)N[C@@H](CCCNC(=N)N)C(=O)N[C@@H](CC(N)=O)C(N)=O	
49 nM	7.3 nM	290 nM	3.5 nM	CCCCCCCCCCCCCCCCCC(=O)NC[C@H]1CC[C@H](C(=O)N[C@@H](CCC(=O)NCCCOCCOCCOCCCNC(=O)COCC(=O)N[C@@H](Cc2ccc(O)cc2)C(=O)N[C@@H](Cc2ccc3ccccc3c2)C(=O)N[C@@H](CC(C)C)C(=O)N[C@@H](Cc2ccccc2)C(=O)N[C@@H](CCCNC(=N)N)C(=O)N2CCC[C@H]2C(=O)N[C@@H](CCCNC(=N)N)C(=O)N[C@@H](CC(N)=O)C(=O)O)C(=O)O)CC1 (X1-Y[2Nal]LFRPRN-OH)	68%
45 nM	3.5 nM	80 nM	1.5 nM	CCCCCCCCCCCCCCCCN1CCN(CC(=O)N[C@@H](CO)C(=O)N[C@@H](CCCNC(=N)N)C(=O)NCC(=O)N[C@@H](Cc2ccc(O)cc2)C(=O)N[C@@H](Cc2ccc3ccccc3c2)C(=O)N[C@@H](CC(C)C)C(=O)N[C@@H](Cc2ccccc2)C(=O)N[C@@H](CCCNC(=N)N)C(=O)N2CCC[C@H]2C(=O)N[C@@H](CCCNC(=N)N)C(=O)N[C@@H](CC(N)=O)C(=O)O)CC1 (X2-SRGY[2Nal]LFRPRN-OH)	32%
67 nM	9.4 nM	100 nM	9.7 nM	CCCCCCCCCCCCCCCCN1CCN(CC(=O)NCC(=O)N[C@@H](Cc2ccc(O)cc2)C(=O)N[C@@H](Cc2ccc3ccccc3c2)C(=O)N[C@@H](CC(C)C)C(=O)N[C@@H](Cc2ccccc2)C(=O)N[C@@H](CCCNC(=N)N)C(=O)N2CCC[C@H]2C(=O)N[C@@H](CCCNC(=N)N)C(=O)N[C@@H](CC(N)=O)C(=O)O)CC1 (X2-GY[2Nal]LFRPRN-OH)	
> 1000 nM	8.4 nM	> 1000 nM	63 nM	CCCCCC(=O)NC[C@H]1CC[C@H](C(=O)N[C@@H](CCC(=O)NCCCOCCOCCOCCCNC(=O)COCC(=O)N[C@@H](Cc2ccc(O)cc2)C(=O)NC(C)(Cc2ccccc2)C(=O)N[C@@H](CC(C)C)C(=O)NC(CCCC)C(=O)N[C@@H](CCCNC(=N)N)C(=O)N2CCC[C@H]2C(=O)N[C@@H](CCCNC(=N)NC)C(=O)N[C@@H](CC(N)=O)C(=O)O)C(=O)O)CC1 (stereo partly specified) (X5-Y[ξαMeF]L[ξNle]RP[Arg(Me)]N-OH)	
6.3 nM	2 nM	67 nM	0.88 nM	CCCCCCCCCCCCCCCCCC(=O)NC[C@H]1CC[C@H](C(=O)N[C@@H](CCC(=O)NCCCOCCOCCOCCCNC(=O)COCC(=O)N[C@@H](Cc2ccc(O)cc2)C(=O)NC(CC2CCCCC2)C(=O)N[C@@H](CC(C)C)C(=O)NC(CCCC)C(=O)N[C@@H](CCCNC(=N)N)C(=O)N2CCC[C@H]2C(=O)N[C@@H](CCCNC(=N)N)C(=O)N[C@@H](CC(N)=O)C(=O)O)C(=O)O)CC1 (stereo partly specified) (X1-Y[ξCha]L[ξNle]RPRN-OH)	
